Measurements from patent US9539252B2, “Piperazine-substituted benzothiophene derivatives as antipsychotic agents” (OTSUKA PHARMACEUTICAL CO., LTD., priority 2011, dated 2017).

Assay: Solubility in oil (sesame oil, benzyl benzoate), visual observation
Settings: oil or lipid, thermodynamic from solid

Row | SMILES | solubility (benzyl benzoate) [mg/mL] | solubility (sesame oil) [mg/mL]
1 | CNC(=O)OCN1C(=O)CCc2ccc(OCCCCN3CCN(c4cccc5sccc45)CC3)cc21 [Example 46, N-methylcarbamic acid 7-[4-(4-benzo[b]thiophen-4-ylpiperazin-1-yl)butoxy]-2-oxo-3,4-dihydro-2H-quinolin-1-ylmethyl ester] | > 100 | –
2 | O=C(OCN1C(=O)CCc2ccc(OCCCCN3CCN(c4cccc5sccc45)CC3)cc21)C1CCC1 [Example 127, cyclobutanecarboxylic acid 7-[4-(4-benzo[b]thiophen-4-ylpiperazin-1-yl)butoxy]-2-oxo-3,4-dihydro-2H-quinolin-1-ylmethyl ester] | > 100 | –
3 | O=C(OCN1C(=O)CCc2ccc(OCCCCN3CCN(c4cccc5sccc45)CC3)cc21)c1ccccc1 [Example 11, benzoic acid 7-[4-(4-benzo[b]thiophen-4-ylpiperazin-1-yl)butoxy]-2-oxo-3,4-dihydro-2H-quinolin-1-ylmethyl ester] | > 100 | –
4 | CCCCCCCCCCCCCCCCCCNC(=O)OCN1C(=O)CCc2ccc(OCCCCN3CCN(c4cccc5sccc45)CC3)cc21 [Example 75, N-octadecylcarbamic acid 7-[4-(4-benzo[b]thiophen-4-ylpiperazin-1-yl)butoxy]-2-oxo-3,4-dihydro-2H-quinolin-1-ylmethyl ester] | > 100 | > 100
5 | CCCCCCCCCCCCCCCNC(=O)OCn1c(=O)ccc2ccc(OCCCCN3CCN(c4cccc5sccc45)CC3)cc21 [Example 43, N-pentadecylcarbamic acid 7-[4-(4-benzo[b]thiophen-4-ylpiperazin-1-yl)butoxy]-2-oxo-2H-quinolin-1-ylmethyl ester] | > 100 | –
6 | CCCCN(CCCC)C(=O)OCn1c(=O)ccc2ccc(OCCCCN3CCN(c4cccc5sccc45)CC3)cc21 [Example 45, N,N-dibutylcarbamic acid 7-[4-(4-benzo[b]thiophen-4-ylpiperazin-1-yl)butoxy]-2-oxo-2H-quinolin-1-ylmethyl ester] | > 100 | > 100
7 | CN(Cc1ccccc1)C(=O)OCn1c(=O)ccc2ccc(OCCCCN3CCN(c4cccc5sccc45)CC3)cc21 [Example 111, N-benzyl-N-methylcarbamic acid 7-[4-(4-benzo[b]thiophen-4-ylpiperazin-1-yl)butoxy]-2-oxo-2H-quinolin-1-ylmethyl ester] | > 100 | –
8 | CC(=O)OCN1C(=O)CCc2ccc(OCCCCN3CCN(c4cccc5sccc45)CC3)cc21 [Example 85, acetic acid 7-[4-(4-benzo[b]thiophen-4-ylpiperazin-1-yl)butoxy]-2-oxo-3,4-dihydro-2H-quinolin-1-ylmethyl ester] | > 100 | –
9 | CCCCOC(=O)OCN1C(=O)CCc2ccc(OCCCCN3CCN(c4cccc5sccc45)CC3)cc21 [Example 151, carbonic acid 7-[4-(4-benzo[b]thiophen-4-ylpiperazin-1-yl)butoxy]-2-oxo-3,4-dihydro-2H-quinolin-1-ylmethyl ester butyl ester] | > 100 | –
10 | CCCCCCCCCCCCCCCCCC(=O)OCn1c(=O)ccc2ccc(OCCCCN3CCN(c4cccc5sccc45)CC3)cc21 [Example 60, octadecanoic acid 7-[4-(4-benzo[b]thiophen-4-ylpiperazin-1-yl)butoxy]-2-oxo-2H-quinolin-1-ylmethyl ester] | > 100 | > 100
11 | O=C(NC1CCCCC1)OCN1C(=O)CCc2ccc(OCCCCN3CCN(c4cccc5sccc45)CC3)cc21 [Example 83, N-cyclohexylcarbamic acid 7-[4-(4-benzo[b]thiophen-4-ylpiperazin-1-yl)butoxy]-2-oxo-3,4-dihydro-2H-quinolin-1-ylmethyl ester] | > 100 | –
12 | O=C(OC/C=C/c1ccccc1)OCn1c(=O)ccc2ccc(OCCCCN3CCN(c4cccc5sccc45)CC3)cc21 [Example 140, carbonic acid 7-[4-(4-benzo[b]thiophen-4-ylpiperazin-1-yl)butoxy]-2-oxo-2H-quinolin-1-ylmethyl ester (E)-3-phenyl-allyl ester] | > 100 | –
